According to patent US12194070B2, “Traditional chinese medicine compound for improving testicular dysfunction, preparation method and application thereof” (Ningxia Medical University, priority 2023, dated 2025):
Where a name gives a salt, the structure may show the parent alone.

What was measured:
Type in all cases: in vivo, C57BL/6J mice
[1] = tested on: PI3K; experiment: Western blot of PI3K expression in testis; conditions: Western blot gray values, metformin 200 mg/kg/d, after 30 days
Description: (§1) Protein samples are taken and added into concentrated gel of an electrophoresis tank for running the gel, transferring the protein from the gel to the membrane, bovine albumin (BSA) blocking and membrane washing, then primary antibodies (including PI3K (rabbit antibody), AKT (rabbit antibody), p-AKT (rabbit antibody), β-actin (rabbit antibody), Bcl-2 (rabbit antibody) and β-actin (mouse antibody) diluted at the concentration 1:1000) are added for incubation and stay overnight in the refrigerator at 4° C.; the next day, the membrane is washed, after the secondary antibodies (including: a mouse secondary antibody (1:5000) and a rabbit secondary antibody (1:2000)) are added for incubation and blocked, the membrane is washed, followed by development, and then gray values are analyzed. Data is analyzed using GraphPad Prism 8.4 statistical software. Counting data of experimental results is expressed as rate/percentage (%), and measurement data is expressed as x±s. The one-way ANOVA is used to compare the groups, and the difference is statistically significant with P<0.05.

[2] = tested on: mice with testicular dysfunction caused by obese type 2 diabetes mellitus; experiment: Oral glucose tolerance test (OGTT); conditions: metformin 200 mg/kg/d, after 30 days; blood glucose 0-120 min after gavage
Description: (§2) 2.3 After 30 days of administration of each group in step 2.2, the following tests are performed in each group.
(§3) OGTT test: the mice are weighed after 15 h fast, fasting blood glucose (FPG) of the mice is measured separately, and the amount of glucose is determined based on the mice's weight. Blood glucose fluctuations are then monitored at 15 min, 30 min, 60 min and 120 min after gavage. Data is analyzed using GraphPad Prism 8.4 statistical software. Counting data of experimental results is expressed as rate/percentage (%), and measurement data is expressed as x±s. The one-way ANOVA is used to compare the groups, and the difference is statistically significant with P<0.05.

[3] = tested on: mice with testicular dysfunction caused by obese type 2 diabetes mellitus; experiment: Fasting blood glucose (FPG); conditions: metformin 200 mg/kg/d, day 30
Description: as §3
(§4) ITT test: the mice are weighed after 5 h fast, the insulin dosage is calculated, and FPG of the mice is measured. Blood glucose fluctuations are then monitored at 15 min, 30 min, 60 min and 120 min after insulin is given. Data is analyzed using GraphPad Prism 8.4 statistical software. Counting data of experimental results is expressed as rate/percentage (%), and measurement data is expressed as x±s. The one-way ANOVA is used to compare the groups, and the difference is statistically significant with P<0.05.

[4] = tested on: p-AKT; experiment: Western blot of p-AKT expression in testis; conditions: Western blot gray values, metformin 200 mg/kg/d, after 30 days
Description: as §1

[5] = tested on: sperm of obese type 2 diabetic mice; experiment: Analysis of semen parameters; conditions: metformin 200 mg/kg/d, after 30 days
Description: One side of epididymis in each group is put into a 12-well plate, diluted with 500 μL of normal saline, fully cut into pieces by a tissue scissor, incubated in a 37° C. incubator, and filtered by a 200-mesh sieve, and 20 μL of filtrate is collected on a cell counting plate, observed under a microscope, and the number of sperm is counted. Sperm viability, sperm motility and malformation rate are counted respectively by Yin Hong aniline black and Diff-Quick staining. Data is analyzed using GraphPad Prism 8.4 statistical software. Counting data of experimental results is expressed as rate/percentage (%), and measurement data is expressed as x±s. The one-way ANOVA is used to compare the groups, and the difference is statistically significant with P<0.05.

[6] = Body weight of mice with testicular dysfunction caused by obese type 2 diabetes mellitus; set-up: AUC of weight before treatment: unit not given beside the values
Description: With six mice in each group, the mice are randomly assigned after one week of adaptive rearing to a control group (Con), a model group (Model), a high-dose compound group (YPBS-H), a low-dose compound group (YPBS-L) and a metformin group (Metformin, Met). The six mice in the control group are given regular feed, the remaining mice are fed with 60% high-fat feed, the weight of each of mice is recorded every 7 days during the feeding.
The mice in each group have been successfully established after feeding for 16 weeks in step 2.1, and the mice in each group are given medicine treatment as follows.
The high-dose compound group (YPBS-H): the traditional Chinese medicine compound obtained in the embodiment 1 is given at a dose of 4 grams per kilogram per day (g/kg/d) per animal.
The low-dose compound group (YPBS-L): the traditional Chinese medicine compound obtained in the embodiment 1 is given at a dose of 2 g/kg/d per animal.
The metformin group (Met): the metformin is given at a dose of 200 mg/kg/d per animal.
During the administration, the mice are fed with the normal feed and drink water normally, and the weight changes of mice are observed. Data is analyzed using GraphPad Prism 8.4 statistical software. Counting data of experimental results is expressed as rate/percentage (%), and measurement data is expressed as x (i.e., mean)±s. The one-way analysis of variance (ANOVA) is used to compare the groups, and the difference is statistically significant with P<0.05.

[7] = tested on: T-SOD; experiment: Serum T-SOD by colorimetry; conditions: metformin 200 mg/kg/d, after 30 days
Description: (§5) The levels of T-SOD, MDA and GSH-px in serum are measured by colorimetry, and the level of testosterone (T) in serum is measured by enzyme linked immunosorbent assay (ELISA), all according to the manufacturer's instructions. Data is analyzed using GraphPad Prism 8.4 statistical software. Counting data of experimental results is expressed as rate/percentage (%), and measurement data is expressed as x±s. The one-way ANOVA is used to compare the groups, and the difference is statistically significant with P<0.05.

[8] = tested on: mice with testicular dysfunction caused by obese type 2 diabetes mellitus; experiment: Insulin tolerance test (ITT); conditions: metformin 200 mg/kg/d, after 30 days; blood glucose 0-120 min after insulin
Description: as §2, §4

[9] = tested on: mouse testis tissue; experiment: HE staining of testis tissue (testicular morphology); conditions: HE staining 200x; metformin 200 mg/kg/d, after 30 days
[10] = tested on: sperm and egg cells; experiment: In vitro fertilization with sperm of the treated mice
Description: The sperm of the mice in each group is taken for fertilization in vitro.

[11] = tested on: obese type 2 diabetic mice; experiment: Testis, epididymis and seminal vesicle gland coefficients; conditions: metformin 200 mg/kg/d, after 30 days
[12] = tested on: obese type 2 diabetic mice; experiment: Cage experiment (fertility)
Description: Female mice of childbearing age are caged with male mice of each group in the ratio of 2:1 for one week, and their fertility is tested by the birth situation.

[13] = tested on: GSH-px; experiment: Serum GSH-Px by colorimetry; conditions: metformin 200 mg/kg/d, after 30 days
Description: as §5

[14] = tested on: Bcl-2; experiment: Western blot of Bcl-2 expression in testis; conditions: Western blot gray values, metformin 200 mg/kg/d, after 30 days
Description: as §1

[15] = tested on: MDA; experiment: Serum MDA by colorimetry; conditions: metformin 200 mg/kg/d, after 30 days
Description: as §5

[16] = tested on: testosterone (T); experiment: Serum testosterone by ELISA; conditions: metformin 200 mg/kg/d, after 30 days
Description: as §5

[17] = after treatment, dose group not stated
[18] = of 10 egg cells, sperm of mice given metformin 200 mg/kg/d
[19] = females caged with males 2:1 for one week, males given metformin 200 mg/kg/d

Q: With CN(C)C(=N)N=C(N)N [Met, metformin hydrochloride] as the compound, how does the PI3K/β-actin [1] read?
A: 0.945 ± 0.056^Δ

Q: What about the OGTT-AUC [2] of the same compound?
A: 1660 ± 70.3^Δ

Q: And the “FPG on the 30th day after treatment” value [3]?
A: 5.5 ± 0.9^Δ

Q: And the p-AKT/AKT [4]?
A: 0.635 ± 0.141

Q: What about the Sperm count [5] of the same compound?
A: 85.02 ± 10.55^Δ 10^6/L

Q: What about the Sperm malformation rate [5] of the same compound?
A: 68.18 ± 4.12^Δ %

Q: What about the Sperm motility [5] of the same compound?
A: 34.55 ± 0.37^Δ %

Q: What about the Sperm viability [5] of the same compound?
A: 43.84 ± 3.59^Δ %

Q: And the “AUC of weight before treatment” value ([6]; before treatment (16 weeks high-fat feed), metformin group)?
A: 613.8 ± 5.3^Δ

Q: And the “AUC of weight after treatment” value ([6]; metformin 200 mg/kg/d, 30 days)?
A: 1243.0 ± 12.0^Δ

Q: What about the “Weight on the 30th day after treatment” value ([6]; metformin 200 mg/kg/d, day 30) of the same compound?
A: 37.9 ± 2.2^Δ g

Q: And the T-SOD [7]?
A: 168.4 ± 34.7^Δ U/mgprot

Q: What about the ITT-AUC [8] of the same compound?
A: 760.7 ± 49.5^Δ

Q: And the “testicular morphology compared to the model group” value [9]?
A: considerably improved

Q: What about the “binding rate of sperm and egg cells” value [10, 17] of the same compound?
A: increases

Q: What about the “division of fertilized egg cells” value [10, 17] of the same compound?
A: divide normally

Q: And the “Number of division of fertilized eggs within 24 hours” value [10, 18]?
A: 7

Q: What about the “Sperm and egg binding number” value [10, 18] of the same compound?
A: 7

Q: What about the Epididymis coefficient [11] of the same compound?
A: 0.33 ± 0.03^Δ %

Q: And the “Seminal vesicle gland coefficient” value [11]?
A: 1.21 ± 0.06^Δ %

Q: And the Testis coefficient [11]?
A: 0.65 ± 0.04^Δ %

Q: And the “fertility of the mice” value [12, 17]?
A: improved, reaching the normal fertility level

Q: And the “Average number of offspring” value [12, 19]?
A: 5.3

Q: And the Pregnancy rate [12, 19]?
A: 50%

Q: What about the Vaginal suppository [12, 19] of the same compound?
A: 50%

Q: What about the GSH-Px [13] of the same compound?
A: 2206.0 ± 535.6^Δ umol/L

Q: What about the Bcl-2/β-actin [14] of the same compound?
A: 1.020 ± 0.076^Δ

Q: What about the MDA [15] of the same compound?
A: 5.6 ± 1.5^Δ umol/L

Q: And the “Testosterone T” value [16]?
A: 5.06 ± 1.42 ng/mL
